Mutagenic call and call data for 21 compounds are collected here from PubChem BioAssay AID1259408 (Genetic Toxicology Data Bank (GENE-TOX), 2018).

Active and inactive are the calls of the source. The rule behind the calls is not given here.

This series relates to GENE-TOX genotoxicity assays, various organisms and cells. The experiment in a line: GENE-TOX mutagenicity studies. The following applies: for call: Assay Type: In vivo carcinogenicity studies.
Setting [1] is: Species/Cell Type: Human lymphocytes, Assay Type: Sister-chromatid exchange (SCE) in vitro, Assay Code: SCL+, Evaluation Type: Evaluation B (Post-1980).
Setting [2] is: Species/Cell Type: Human, Assay Type: Sister-chromatid exchange (SCE) in vitro, Assay Code: SC1+, Evaluation Type: Evaluation B (Post-1980).
Where [3] appears, read: Species/Cell Type: Syrian hamster embryo (SA7/SHE) cells, Assay Type: Cell transformation, viral enhanced, Assay Code: CT7+, Evaluation Type: Evaluation A (Pre-1980).
The mark [4] stands for this setting: Species/Cell Type: Drosophila melanogaster, Assay Type: Aneuploidy, whole sex chromosome loss, chromosome aberrations, Assay Code: DACT, Evaluation Type: Evaluation A (Pre-1980).
Setting [5] is: Species/Cell Type: Neurospora crassa, Assay Type: Aneuploidy, chromosome aberrations, Assay Code: NEN-, Evaluation Type: Evaluation A (Pre-1980).
[6] abbreviates: Species/Cell Type: Vicia faba, Assay Type: Chromosome aberrations, Assay Code: VIC+, Evaluation Type: Evaluation A (Pre-1980).
Where [7] appears, read: Species/Cell Type: Nonhuman, Assay Code: CCGT, Evaluation Type: Evaluation A (Pre-1980).
Where [8] appears, read: Species/Cell Type: Human, Assay Type: Sister-chromatid exchange (SCE) in vitro, Assay Code: SC1T, Evaluation Type: Evaluation B (Post-1980).
[9] abbreviates: Species/Cell Type: Human lymphocytes, Assay Type: Sister-chromatid exchange (SCE) in vitro, Assay Code: SCLT, Evaluation Type: Evaluation B (Post-1980).
Where [10] appears, read: Species/Cell Type: Salmonella typhimurium (one or more of the five standard strains: TA98, TA100, TA1535, TA1537, and TA1538), Assay Type: Histidine reverse gene mutation, Ames assay, Assay Code: SAL+, Evaluation Type: Evaluation A (Pre-1980).
[11] abbreviates: Species/Cell Type: Escherichia coli polA (W3119 vs P3478), Assay Type: Rec-assay, DNA effects (bacterial DNA repair), Assay Code: RE1T, Evaluation Type: Evaluation A (Pre-1980).

Regarding `Oc1ccccc1`, the mutagenic call was “active; positive” under setting [1]; “active; positive” under setting [2]; “no conclusion” (Species/Cell Type: Mammalian polychromatic erythrocytes, Assay Type: Micronucleus test, chromosome aberrations, Assay Code: MNTT, Evaluation Type: Evaluation B (Post-1980)); “inactive; negative” (Species/Cell Type: Neurospora crassa, Assay Type: Reverse gene mutation, Assay Code: NER-, Evaluation Type: Evaluation A (Pre-1980)).
Take `[Cu+].[Cu].[SH-]`: under setting [3], the mutagenic call was “active; positive”.
In the case of `CCNc1nc(Cl)nc(NC(C)C)n1`, the mutagenic call reads like this: (Species/Cell Type: Aspergillus nidulans, Assay Type: Reverse gene mutation, Assay Code: ASR+*, Activation: With metabolic activation, Evaluation Type: Evaluation A (Pre-1980)) “active; positive”; (Species/Cell Type: Drosophila melanogaster, Assay Type: Aneuploidy, sex chromosome gain, chromosome aberrations, Assay Code: DAGT, Evaluation Type: Evaluation A (Pre-1980)) “no conclusion”; under setting [4], “no conclusion”; (Species/Cell Type: Drosophila melanogaster, Assay Type: Sex-linked recessive lethal gene mutation, Assay Code: SRLT, Evaluation Type: Evaluation A (Pre-1980)) “no conclusion”; (Species/Cell Type: Hordeum vulgare (barley), Assay Type: Chromosome aberrations, Assay Code: HOC+, Evaluation Type: Evaluation A (Pre-1980)) “active; positive”; under setting [5], “inactive; negative”. Moreover, the mutagenic call was “active; positive” (Species/Cell Type: Saccharomyces cerevisiae, Assay Type: Mitotic recombination or gene conversion, Assay Code: YEC+*, Activation: With metabolic activation, Evaluation Type: Evaluation A (Pre-1980)); “inactive; negative” (Species/Cell Type: Tradescantia species, Assay Type: Gene mutation, Assay Code: TRM-, Evaluation Type: Evaluation A (Pre-1980)); “active; positive” under setting [6]; “active; positive” (Species/Cell Type: Zea mays (corn), Assay Type: Gene mutation, Assay Code: ZEM+F, Evaluation Type: Evaluation A (Pre-1980)).
With `Cc1ccc2c(c1)cc1ccccc1[n+]2C`, the mutagenic call (Species/Cell Type: Saccharomyces cerevisiae, Assay Type: Forward gene mutation, Assay Code: YEFT, Evaluation Type: Evaluation A (Pre-1980)) is given as “no conclusion”.
Take `CC(=O)[O-].CC(=O)[O-].[Cd+2]`: the call under setting [7] is given as “no conclusion”. Moreover, the mutagenic call reads like this: (Species/Cell Type: Nonhuman, Assay Type: Sister-chromatid exchange (SCE) in vitro, Assay Code: SC2-, Evaluation Type: Evaluation B (Post-1980)) “inactive; negative”; under setting [3], “active; positive”; (Species/Cell Type: Syrian hamster embryo (SHE) cells, Assay Type: Cell transformation, clonal assay, Assay Code: CTC+, Evaluation Type: Evaluation A (Pre-1980)) “active; positive”.
`CCOc1ccc(NC(C)=O)cc1`: the mutagenic call (Species/Cell Type: Mammalian polychromatic erythrocytes, Assay Type: Micronucleus test, chromosome aberrations, Assay Code: MNT+, Evaluation Type: Evaluation B (Post-1980)) is “active; positive” and the mutagenic call (Species/Cell Type: Nonhuman, Assay Type: Sister-chromatid exchange (SCE) in vivo, Assay Code: SC3+, Evaluation Type: Evaluation B (Post-1980)) was “active; positive”. The call (Species/Cell Type: Nonhuman, Assay Code: CCG+, Evaluation Type: Evaluation A (Pre-1980)) is “active; positive”.
Turning to `Nc1ncnc2c1ncn2[C@@H]1O[C@H](CO[C@H]2[C@H](O)[C@@H](O)[C@@H](O[C@@H](C(=O)O)[C@H](O)[C@H](OP(=O)(O)O)[C@H](O)C(=O)O)O[C@@H]2CO)[C@@H](O)[C@H]1O`, the mutagenic call (Species/Cell Type: Plant, Assay Type: Micronucleus test, chromosome aberrations, Assay Code: MNP+, Evaluation Type: Evaluation A (Pre-1980)) is “active; positive”.
`C=C1C[C@@]23CC[C@H]4[C@@](C)(CCC[C@@]4(C)C(=O)O[C@@H]4O[C@H](CO)[C@@H](O)[C@H](O)[C@H]4O)[C@@H]2CC[C@]1(O[C@@H]1O[C@H](CO)[C@@H](O)[C@H](O)[C@H]1O[C@@H]1O[C@H](CO)[C@@H](O)[C@H](O)[C@H]1O)C3`: the mutagenic call under setting [8] is reported as “no conclusion”.
Turning to `N[C@@H](CCC(=O)N[C@@H](CS)C(=O)NCC(=O)O)C(=O)O`, the mutagenic call is “no conclusion” under setting [9]; “no conclusion” under setting [8]; “active; positive” (Species/Cell Type: Nonhuman, Assay Type: Sister-chromatid exchange (SCE) in vitro, Assay Code: SC2+D, Dose Response: With dose response, Evaluation Type: Evaluation B (Post-1980)).
For `O=NN1CCC(=O)NC1=O`, under setting [10], the mutagenic call is “active; positive”.
Regarding `CCc1ccccc1`, the mutagenic call under setting [1] was “active; positive”; the mutagenic call under setting [2] was “active; positive”; the mutagenic call (Species/Cell Type: Syrian hamster embryo (SA7/SHE) cells, Assay Type: Cell transformation, viral enhanced, Assay Code: CT7-, Evaluation Type: Evaluation A (Pre-1980)) was “inactive; negative”.
Take `Cc1nccc2c1[nH]c1ccccc12`: the mutagenic call reads like this: (Species/Cell Type: Human lymphocytes, Assay Type: Sister-chromatid exchange (SCE) in vitro, Assay Code: SCL+D, Dose Response: With dose response, Evaluation Type: Evaluation B (Post-1980)) “active; positive”; (Species/Cell Type: Human, Assay Type: Sister-chromatid exchange (SCE) in vitro, Assay Code: SC1+D, Dose Response: With dose response, Evaluation Type: Evaluation B (Post-1980)) “active; positive”; (Species/Cell Type: Salmonella typhimurium (one or more of the five standard strains: TA98, TA100, TA1535, TA1537, and TA1538), Assay Type: Histidine reverse gene mutation, Ames assay, Assay Code: SALT, Evaluation Type: Evaluation A (Pre-1980)) “no conclusion”.
With `Cc1ccc(N=O)cc1`, where the note is “Species/Cell Type: Saccharomyces cerevisiae, Assay Type: Mitotic recombination or gene conversion, Assay Code: YEC+, Evaluation Type: Evaluation A (Pre-1980)”, the mutagenic call is “active; positive”.
Take `C[C@@H]1C[C@@H]([C@H](O)CC2CC(=O)NC(=O)C2)C(=O)[C@@H](C)C1`: the mutagenic call under setting [4] is recorded as “no conclusion”; the mutagenic call (Species/Cell Type: Escherichia coli polA (W3110 vs P3478), Assay Type: Rec-assay, DNA effects (bacterial DNA repair), Assay Code: RE2+, Evaluation Type: Evaluation A (Pre-1980)) was “active; positive”; the mutagenic call under setting [11] was “no conclusion”; the mutagenic call (Species/Cell Type: Mammalian polychromatic erythrocytes, Assay Type: Micronucleus test, chromosome aberrations, Assay Code: MNTT, Evaluation Type: Evaluation A (Pre-1980)) is recorded as “no conclusion”; the mutagenic call (Species/Cell Type: Mouse, Sex: Male, Assay Type: Sperm morphology, Assay Code: SPI+, Evaluation Type: Evaluation A (Pre-1980)) was “active; positive”; the mutagenic call under setting [5] is “inactive; negative”. The mutagenic call is “no conclusion” (Species/Cell Type: Nonhuman, Assay Type: Sister-chromatid exchange (SCE) in vitro, Assay Code: SC2T, Evaluation Type: Evaluation B (Post-1980)) and “active; positive” under setting [6]. Moreover, the call under setting [7] was “no conclusion”.
In the case of `CC(C)=CCOc1c2occc2cc2ccc(=O)oc12`, the mutagenic call under setting [1] was “active; positive” and the mutagenic call under setting [2] is “active; positive”.
As for `CCN(CCCl)CCCNc1c2ccccc2nc2c1ccc1ccccc12`, the mutagenic call (Species/Cell Type: Chinese hamster ovary (CHO) cells, Assay Type: Forward gene mutation at the HPRT locus, Assay Code: CHO+D, Dose Response: With dose response, Evaluation Type: Evaluation A (Pre-1980)) was “active; positive”.
On to `O=c1ccc2ccccc2[nH]1`, for which the mutagenic call (Species/Cell Type: Salmonella typhimurium (one or more of the five standard strains: TA98, TA100, TA1535, TA1537, and TA1538), Assay Type: Histidine reverse gene mutation, Ames assay, Assay Code: SAL-, Evaluation Type: Evaluation A (Pre-1980)) is “inactive; negative”.
For `O=NN1CCC(Br)C(Br)C1` (configuration not stated), the mutagenic call is, setting by setting: (Species/Cell Type: Drosophila melanogaster, Assay Type: Sex-linked recessive lethal gene mutation, Assay Code: SRL+, Evaluation Type: Evaluation A (Pre-1980)) “active; positive”; under setting [10], “active; positive”.
As for `S=C=Nc1cccc2ccccc12`, the mutagenic call is, setting by setting: (Species/Cell Type: Escherichia coli polA (W3110 vs P3478), Assay Type: Rec-assay, DNA effects (bacterial DNA repair), Assay Code: RE2-, Evaluation Type: Evaluation A (Pre-1980)) “inactive; negative”; under setting [11], “no conclusion”; (Species/Cell Type: Mouse (BALB/c-3T3) cells, Assay Type: Cell transformation, Assay Code: CTB+D, Dose Response: With dose response, Evaluation Type: Evaluation A (Pre-1980)) “active; positive”; (Species/Cell Type: Saccharomyces cerevisiae, Assay Type: Mitotic recombination or gene conversion, Assay Code: YEH-, Evaluation Type: Evaluation A (Pre-1980)) “inactive; negative”; (Species/Cell Type: Salmonella typhimurium, Assay Type: Forward and reverse gene mutation, host-mediated assay, Assay Code: HMA-, Evaluation Type: Evaluation A (Pre-1980)) “inactive; negative”; (Species/Cell Type: Syrian hamster embryo (SHE) cells, Assay Type: Cell transformation, clonal assay, Assay Code: CTC-, Evaluation Type: Evaluation A (Pre-1980)) “inactive; negative”. For the same compound, the call under setting [7] is given as “no conclusion”.
Consider `O=C[C@H](O)[C@@H](O)[C@H](O[C@@H]1O[C@H](CO)[C@H](O)[C@H](O)[C@H]1O)[C@H](O)CO`, for which the mutagenic call by setting is: under setting [9], “no conclusion”; under setting [8], “no conclusion”; (Species/Cell Type: Nonhuman, Assay Type: Sister-chromatid exchange (SCE) in vivo, Assay Code: SC3T, Evaluation Type: Evaluation B (Post-1980)) “no conclusion”.
As to `CC(C)C[C@@H](N)[C@H](O)C(=O)N[C@H](C(=O)N[C@H](C(=O)N[C@@H](CC(=O)O)C(=O)O)C(C)C)C(C)C`, the mutagenic call under setting [8] is reported as “no conclusion”.
